Data: patent US9464064B2, “HCV helicase inhibitors and methods of use thereof” (University of Kansas, priority 2011, dated 2016)
Like-named read-outs stand apart in the source and are kept apart here.

Key:
[1] = test system: HCV RLuc subgenomic replicon (genotype 1b) in Huh-7.5 cells; experiment: HCV subgenomic replicon assay (Renilla luciferase); format: cell-based, hepatitis C virus; details: for inhibition at 10 µM: Hepatitis C virus
Text: An HCV Renilla luciferase reporter construct (HCV RLuc; Huang, et al. (2006) Hepatology 43:81-90) was used to measure the effect of each compound on cellular HCV RNA levels. In HCV RLuc, the HCV internal ribosome entry site (IRES) drives the translation of the neomycin and Renilla luciferase genes while the HCV nonstructural proteins (NS3 to NS5B) are translated from the Encephalomyocarditis virus IRES (Huang, et al. (2006) supra). The plasmid DNA was cleaved with ScaI, purified by phenol/chloroform extraction followed by ethanol precipitation, and used as template for RNA transcription using […] T7 RNA transcription kit (Ambion, Austin, Tex.). The RNA transcripts were treated with 2 U DNase I (Ambion) at 37° C. for 30 minutes, purified by acid phenol/chloroform extraction, followed by isopropanol precipitation, and suspended in diethylpyrocarbonate-treated water. RNA concentration was determined by spectrophotometry by measuring the A260. RNA integrity and size was checked on 1% agarose gel. Transcribed RNA was stored in aliquots at −80° C. until needed.
Huh-7.5 cells were transfected with HCV RNA by electroporation. Briefly, subconfluent Huh7.5 cells were trypsinized, suspended in complete growth medium, and centrifuged at 1,000×g for 5 minutes at 4° C. The cell pellets were then washed twice with ice-cold phosphate-buffered saline (PBS) and suspended at 1.75×10^7 cells/mL in ice-cold PBS. Replicon RNA (5 μg) was mixed with 0.4 mL of cell suspension and transferred to 2 mm gap width electroporation cuvette (EPPENDORF AG, Germany) and pulsed 5 times for 99 μsec at 820 V over 1.1 sec intervals using the ECM 830 electroporator instrument (BTX Harvard Apparatus, Holliston, Mass.). After a 5 minute recovery period at room temperature, cells were transferred to 10 ml complete growth medium, and seeded into 10 cm diameter cell culture dishes. Twenty-four hours after transfection, the medium was replaced with fresh complete DMEM supplemented with 1 mg/ml geneticin (Invitrogen) and the medium was replaced every three to four days with fresh medium containing 1 mg/mL geneticin. Geneticin-resistant colonies were selected for a period of two weeks and expanded in the presence of 250 μg/mL geneticin.
HCV RLuc replicon cells were seeded at a density of 10×10^3 cells per well in 96-well plates and incubated for 4-5 hours to allow the cells to attach to the plate. The compounds dissolved in dimethyl sulfoxide (DMSO) were added at a final concentration of 10 μM (DMSO solvent final concentration was 0.5%) and the cells were incubated for 72 hours at 37° C. under 5% CO2 atmosphere. The effects of compounds on HCV replication were then assessed by measuring the Renilla luciferase activity in compound-treated versus DMSO-treated cells. At the end of the incubation period, the medium was aspirated and the cells were washed with 1×PBS. The Renilla luciferase reporter gene assay was performed using the Renilla luciferase assay kit (PROMEGA, Madison, Wis.) according to the manufacturer's instructions. Briefly, the cells were lysed by addition of 50 μL of 1× Renilla luciferase lysis buffer followed by two cycles of freeze/thaw. The luciferase activity content of the lysate was measured with a FLUOSTAR Omega microplate reader instrument (BMG Labtech, Germany) after injecting 50 μL of luciferase substrate and reading for 5 seconds.
To determine if the above identified compounds might be useful as HCV antiviral agents, they were added to cells harboring HCV subgenomic RNA replicon. The HCV replicon chosen was derived from the same HCV strain (genotype 1b) as the NS3 protein used for screening and enzyme assays. […] 75:4614-4624; Blight, et al. (2002) J. Virol. 76:13001-13014). […]

[2] = test system: MBHA DNA substrate; experiment: Modified FID assay, SYBR Green I; format: binding; details: for DNA binding (%): SYBR Green I-FID, average (±SD) percent bound at 100 μM
Experimental: A modified FID assay, in which ethidium bromide was replaced with SYBR Green I (Invitrogen), was used to estimate a compounds affinity for the MBHA substrate. Reactions were performed as described above except that the DNA substrate was present at 0.32 μM, ethidium bromide was absent, and SYBER Green was present at (0.68 μM). Data were normalized as described above and fit to concentration-response equation using GraphPad Prism software. Titrations with each compound were performed in triplicate, and EC50 values from three independent titrations are reported ±standard deviations.

[3] = Huh7.5, 10 μM, read-out: Replicon (% Inhibition @ 10 μM)
[4] = SYBR Green, read-out: FID (SG) EC50 (converted)
[5] = Huh7.5, 10 μM compound, triplicate, average ± SD, read-out: HCV replication (% Inh.)
[6] = Huh7.5, read-out: HCV replication (% Inh.)
[7] = Huh7.5, read-out: Replicon (% Inhibition @ 10 μM)

SMILES	inhibition at 10 µM [1, 3] [%]	DNA binding (%) [2] [%]	FID (SG) % Displaced @ 100 μM ([2]; SYBR Green) [%]	EC50 [2, 4] [µM]	inhibition at 10 µM [1, 5] [%]	inhibition at 10 µM [1, 6] [%]	inhibition at 10 µM [1, 7] [%]	EC50 ([2]; FID, mean ± SD, read-out: DNA Binding (SYBR Green I) EC50) [µM]	ability to decrease the amount of HCV RNA present in the cultures ([1]; 10 μM)
Cc1ccc2nc(-c3ccc4nc(-c5ccc(NC(=O)c6ccc7ncoc7c6)cc5)sc4c3)sc2c1S(=O)(=O)O	15 ± 11								
Cc1ccc2nc(-c3ccc4nc(-c5ccc(NS(=O)(=O)c6ccc(C(F)(F)F)cc6)cc5)sc4c3)sc2c1S(=O)(=O)O	-7 ± 14								
Cc1ccc2nc(-c3ccc(NC(=O)c4ccc(C(F)(F)F)cc4)cc3)sc2c1S(=O)(=O)O	11 ± 14								
Cc1ccc2nc(-c3ccc(NC(=O)c4ccc(N)cc4)cc3)sc2c1S(=O)(=O)O	21 ± 29								
Cc1ccc2nc(-c3ccc(NC(=O)c4ccc(NS(=O)(=O)c5ccccc5)cc4)cc3)sc2c1S(=O)(=O)O	-73 ± 50								
Cc1ccc2nc(-c3ccc(NC(=S)Nc4ccccc4Br)cc3)sc2c1	80 ± 17								
Cc1ccc2nc(-c3ccc4nc(NC(=O)c5ccc6ncoc6c5)sc4c3)sc2c1	90 ± 35								
Cc1ccc2nc(-c3ccc4nc(-c5ccc(NC(=O)c6ccccc6)cc5)sc4c3)sc2c1S(=O)(=O)O [Compound 5, 2′-(4-benzamidophenyl)-6-methyl-[2,6′-bibenzo[d]thiazole]-7-sulfonic acid]	45 ± 5	31 ± 13	31 ± 13	> 100	45 ± 5				
Cc1ccc2nc(-c3ccc4nc(-c5ccc(NC(=O)c6ccc(N)cc6)cc5)sc4c3)sc2c1S(=O)(=O)O [Compound 6, 2′-(4-(4-aminobenzamido)phenyl)-6-methyl-[2,6′-bibenzo[d]thiazole]-7-sulfonic acid]	33 ± 1	63 ± 15	63 ± 15	55 ± 13	33 ± 1				
Cc1ccc2nc(-c3ccc4nc(-c5ccc(NC(=O)c6ccc(F)cc6)cc5)sc4c3)sc2c1S(=O)(=O)O.N [Compound 7, 2′-(4-(4-fluorobenzamido)phenyl)-6-methyl-[2, bibenzo[d]thiazole]-7-sulfonic acid]	50 ± 5	35 ± 15	35 ± 15	> 100	50 ± 5				
COc1ccc(C(=O)Nc2ccc(-c3nc4ccc(-c5nc6ccc(C)c(S(=O)(=O)O)c6s5)cc4s3)cc2)cc1 [Compound 8, 2′-(4-(4-methoxybenzamido)phenyl)-6-methyl-[2,6′-bibenzo[d]thiazole]-7-sulfonic acid]		35 ± 10	35 ± 10	> 100		64 ± 4	64 ± 4		
COC(=O)c1ccc(C(=O)Nc2ccc(-c3nc4ccc(-c5nc6ccc(C)c(S(=O)(=O)O)c6s5)cc4s3)cc2)cc1 [Compound 9, 2′-(4-(4-(methoxycarbonyl)benzamido)phenyl)-6-methyl-[2,6′-bibenzo[d]thiazole]-7-sulfonic acid]	40 ± 1	28 ± 10	28 ± 10	> 100	40 ± 1				
Cc1ccc2nc(-c3ccc4nc(-c5ccc(NC(=O)c6ccc(Cl)cc6)cc5)sc4c3)sc2c1S(=O)(=O)O [Compound 10, 2′-(4-(4-chlorobenzamido)phenyl)-6-methyl-[2,6′-bibenzo[d]thiazole]-7-sulfonic acid]		67 ± 17	67 ± 17	31 ± 15		42 ± 9	42 ± 9		
Cc1ccc(C(=O)Nc2ccc(-c3nc4ccc(-c5nc6ccc(C)c(S(=O)(=O)O)c6s5)cc4s3)cc2)cc1 [Compound 11, 6-methyl-2′-(4-(4-methylbenzamido)phenyl)-[2,6′-bibenzo[d]thiazole]-7-sulfonic acid]	52 ± 12	50 ± 15	50 ± 15	> 100	52 ± 12			> 100	
Cc1ccc2nc(-c3ccc4nc(-c5ccc(NC(=O)c6ccc(C(F)(F)F)cc6)cc5)sc4c3)sc2c1S(=O)(=O)O [Compound 12, 6-methyl-2′-(4-(4-(trifluoromethyl)benzamido)phenyl)-[2,6′-bibenzo[d]thiazole]-7-sulfonic acid]	44 ± 12	69 ± 9	69 ± 9	29 ± 9	44 ± 12				
Cc1ccc2nc(-c3ccc4nc(-c5ccc(NC(=O)c6ccc(C(C)(C)C)cc6)cc5)sc4c3)sc2c1S(=O)(=O)O [Compound 13, 2′-(4-(4-(tert-butyl)benzamido)phenyl)-6-methyl-[2,6′-bibenzo[d]thiazole]-7-sulfonic acid]	51 ± 9	72 ± 19	72 ± 19	16 ± 6	51 ± 9				
Cc1ccc2nc(-c3ccc4nc(-c5ccc(NC(=O)c6ccc(N(C)C)cc6)cc5)sc4c3)sc2c1S(=O)(=O)O [Compound 14, 2′-(4-(4-(dimethylamino)benzamido)phenyl)-6-methyl-[2,6′-bibenzo[d]thiazole]-7-sulfonic acid]	22 ± 2	44 ± 4	44 ± 4	> 100	22 ± 2				
Cc1ccc2nc(-c3ccc4nc(-c5ccc(NC(=O)c6ccc(Br)cc6)cc5)sc4c3)sc2c1S(=O)(=O)O [Compound 15, 2′-(4-(4-bromobenzamido)phenyl)-6-methyl-[2,6′-bibenzo[d]thiazole]-7-sulfonic acid]	7 ± 18	70 ± 9	70 ± 9	30 ± 13	7 ± 18				
Cc1ccc2nc(-c3ccc4nc(-c5ccc(NC(=O)c6ccc(NC(=O)OCC7c8ccccc8-c8ccccc87)cc6)cc5)sc4c3)sc2c1S(=O)(=O)O [Compound 16, 2′-(4-(4-((((9H-fluoren-9-yl)methoxy)carbonyl)amino)benzamido)phenyl)-6-methyl-[2,6′-bibenzo[d]thiazole]-7-sulfonic acid]	57 ± 21	76 ± 5	76 ± 5	6 ± 2	57 ± 21				
Cc1ccc2nc(-c3ccc4nc(-c5ccc(NC(=O)c6cccc(Cl)c6)cc5)sc4c3)sc2c1S(=O)(=O)O [Compound 17, 2′-(4-(3-chlorobenzamido)phenyl)-6-methyl-[2,6′-bibenzo[d]thiazole]-7-sulfonic acid]	54 ± 10	41 ± 11	41 ± 11	> 100	54 ± 10				
Cc1ccc2nc(-c3ccc4nc(-c5ccc6nc(-c7ccc(N)cc7)sc6c5)sc4c3)sc2c1S(=O)(=O)O [Compound P3, 2″-(4-aminophenyl)-6-methyl-[2,6′:2′,6″-terbenzo[d]thiazole]-7-sulfonic acid]									showed any ability to decrease the amount of HCV RNA present in the cultures
